{"source": "patent US20050266409A1", "about": "“Compositions and methods for diagnosing, preventing, and treating cancers” (priority 2003, published 2005)", "origin": "cited, not measured here", "key": {"[1]": {"tested_on": "lymphoid, myeloid, colon, and prostate cancer cells", "conditions": "prostate cancer xenografts in nude mice"}, "tumor cells": {"tested_on": "tumor cells", "conditions": "read-out: 50% growth inhibition of tumor cells"}}}
{"smiles": "CN1CC[C@H](c2c(O)cc(O)c3c(=O)cc(-c4ccccc4Cl)oc23)[C@H](O)C1", "note": "[Flavopiridol]", "values": [{"measurement": "inhibition of cancer cells grown in vivo as tumor xenografts", "setting": "[1]", "result": "inhibits"}, {"measurement": "IC50", "setting": "tumor cells", "result": 60, "unit": "nM"}]}
